According to patent US20200281949A1, “METHODS FOR TREATING CASTRATION-RESISTANT AND CASTRATION-SENSITIVE PROSTATE CANCER” (TOLERO PHARMACEUTICALS, INC., priority 2018, published 2020):

Experiments:
[1] = Phase I dose-escalation study in patients with advanced solid tumors: safety; assay type: in vivo, human
From the text: Patients with advanced metastatic or progressive solid tumors who were refractory to, or intolerant of, established therapy known to provide clinical benefit for their condition were enrolled. Cohorts of 3-6 patients each received escalating doses of compound of structure (I) using a modified Fibonacci dose escalation approach. Once the optimal dose has been established, additional patients may be enrolled to confirm safety and to explore efficacy. Twenty additional patients will be enrolled in an expansion cohort at the maximum tolerated dose (MTD).
This is an ongoing Phase 1, open-label, dose-escalation, safety, PK and PD study. The proposed starting dose and schedule for oral compound of structure (I) was a 1-mg flat dose once daily (QD) for 14 days followed by a 7-day drug-free recovery period (each cycle=21 days). In the absence of dose-limiting toxicities (DLTs) in the first cohort of at least 3 patients, the dose was increased using a modified Fibonacci dose escalation scheme, and BID dosing commenced according to the dose escalation schedule described in Table 8. The first patient in cohort 6 has been enrolled at 8 mg compound of structure (I) BID. The baseline demographics of the first 14 patients enrolled in the study are described in Table 6.
DLT was defined as any one of the following events observed in cycle 1, regardless of investigator attribution, unless there was a clear alternative explanation: • 1. Grade 3 or greater febrile neutropenia • 2. Grade 4 neutropenia for ≥7 consecutive days • 3. Grade 4 thrombocytopenia or Grade 3 thrombocytopenia with clinically significant bleeding or that requires a platelet transfusion • 4. Grade 3 or 4 nonhematologic AEs will be considered dose limiting, regardless of duration aside from the specific parameters described herein • 5. Grade 4 nausea, vomiting, or diarrhea, regardless of duration • 6. Dosing delays≥1 week due to treatment-emergent adverse events (TEAEs) or related severe laboratory test values • 7. Any AST and ALT elevation>3× ULN (if baseline value was normal) or ≥3× the baseline value (if baseline value was abnormal) accompanied by serum bilirubin levels>2×ULN • 8. […] Any Grade≥3 elevations in creatinine • 10. Any Grade 5 toxicity

[2] = tested on: subcutaneous 22Rv1 human prostate cancer xenograft; experiment: Efficacy study in the 22Rv1 xenograft prostate cancer model; assay type: in vivo, male BALB/c nude mice; conditions: castrated mice, 21 days; doses per Table 1: Cmpd Str (I) 1.25 mg/kg p.o. BID or 10 mg/kg p.o. Q7D; enzalutamide 30 mg/kg p.o. QD; docetaxel 10 mg/kg i.p. Q7D; ABT199 100 mg/kg p.o. QD
Protocol: The objective of this study was to evaluate the in vivo therapeutic efficacy of the compound of structure (I) or a pharmaceutically acceptable salt or zwitterionic form thereof in the treatment of a subcutaneous 22Rv1 human prostate cancer xenograft model. For the 22Rv1 model, efficacy of the compound of structure (I) was evaluated in male BALB/c nude mice. Cobalt-60 irradiation of all mice was performed 2 days before the tumor inoculation at 2 Gy (1 Gy=100 rads). Each mouse was inoculated at the right flank with 1×10^7 tumor cells in 0.1 ml of PBS mixed with matrigel (1:1). The date of tumor cell inoculation was denoted as day 0.
Castration was performed when mean tumor volume reached approximately 200 mm^3. Mice were anesthetized with ketamine/xylazine; surgical castration was performed via a midline scrotal incision allowing bilateral access to the hemiscrotal contents; after exposing each testicle, a 6-0 Vicryl suture was used to ligate the spermatic cord and then remove the testicle; the scrota and skin was then closed with 6-0 Vicryl suture, separately. Treatments started when the mean tumor volume re-grew to approximately 100 mm^3.
After tumors reached the appropriate size, approximately 100-200 mm^3, mice were randomized into treatment groups 1-11, which are shown in Table 1. Each treatment was administered starting on day 15, at a dosing volume of 5 μL/g and continued for 21 days (or 22 days for groups with treatment at Q7D). For groups with treatment at Q7D×3 weeks, dosing was performed on days 1, 8, and 15 post-randomization, and the study was terminated on day 22 post randomization. The combined treatment intervals were each 0 h, and the interval for BID was 8 h. Randomization was performed based on the “Matched distribution” method (StudyDirector™ software, version 3.1.399.19) randomized block design.
Tumor volumes were measured twice per week after randomization in two dimensions using a caliper, and the volume was expressed in mm^3 using the formula: “V=(L×W×W)/2,” where V is tumor volume, L is tumor length (the longest tumor dimension) and W is tumor width (the longest tumor dimension perpendicular to L). The average tumor volume for each group, as a percentage of the average tumor volume of the control group (group 1), is shown in FIG. 6. […] The percentage shown in FIG. 7 (% T/C) is calculated as mean(T)/mean(C)*100%, with “T” representing tumor volume and “C” representing tumor volume for group 1.
T and C are the mean tumor volume (or weight) of the treated groups and control group (group 1), respectively, on a given day. The percentages shown in FIG. 10 are calculated as % ΔT/C=(mean(T)−mean(T0))/(mean(C)−mean(C0))*100%, with “0” indicating the initial timepoint.

[3] = tested on: PC-3 prostate tumor xenograft; experiment: Tumor growth in PC-3 mouse xenograft model; assay type: in vivo; conditions: oral gavage 1.25 mg/kg BID x 21 days, or 7.5 or 15 mg/kg q7d x 3
Protocol: The effects of the compound of structure (I) on tumor growth in the PC-3 mouse xenograft model were also assessed. PC-3 prostate tumor cells were maintained in vitro as a monolayer culture in Ham's F12K medium supplemented with 10% fetal bovine serum at 37° C. in an atmosphere of 5% CO2 in air. The cells in an exponential growth phase were harvested and counted for tumor inoculation. Each mouse was inoculated subcutaneously at the right flank region with PC-3 prostate tumor cells (5×10^6 cells) in 0.1 ml of PBS for tumor development. When the mean tumor size reached approximately 100 mm^3, the mice were randomized and divided into study groups. Compound of structure (I) was administered at 1.25 mg/kg twice daily (BID) for 21 days, or 7.5 mg/kg or 15 mg/kg once weekly (q7d×3) by oral gavage. Tumor volumes were measured twice weekly in two dimensions using a caliper, and the volume expressed in mm^3 using the formula: V=(L×W×W)/2, where V is tumor volume, L is tumor length (the longest tumor dimension) and W is tumor width (the longest tumor dimension perpendicular to L).

[4] = Phase I dose-escalation study in patients with advanced solid tumors: plasma PK; assay type: in vivo, human; conditions: any timepoint
Protocol: Plasma PK parameters of compound of structure (I) and alvocidib were evaluated in Cohorts 1-5 at specific timepoints during the study. Blood was collected from patients in Cohorts 1-5 according to the pharmacokinetic sampling schedule described in Table 9.
PK parameters were estimated using standard noncompartmental methods. Actual sample collection times were used rather than scheduled collection times. Plasma concentrations below the limit of quantification were treated as 0. Imbedded missing plasma concentrations (e.g., missing values between two observed values) were estimated using linear […]. This is consistent with using the trapezoidal rule to calculate AUC. Other missing plasma concentrations were excluded from calculations to estimate PK parameters.

[5] = patients, oral, Cohorts 1-5 (1 mg QD to 6 mg BID), to date

## CN1CC[C@H](c2c(OP(=O)(O)O)cc(O)c3c(=O)cc(-c4ccccc4Cl)oc23)[C@H](O)C1 [compound of structure (I)]
[1]; number of patients (%), N = 14
  Treatment-emergent adverse events, Grade 3: Anemia: 1 (7%)
  Treatment-emergent adverse events, Grade 3: Chest Pain: 1 (7%)
  Treatment-emergent adverse events, Grade 3: Haematuria: 1 (7%)
  Treatment-emergent adverse events, Grade 3: Hypotension: 1 (7%)
  Treatment-emergent adverse events, Grade 3: Hypoxia: 1 (7%)
  Treatment-emergent adverse events, Grade 3: Malignant Pleural Effusion: 1 (7%)
  Treatment-emergent adverse events, Grade 3: Pain: 1 (7%)
  Treatment-emergent adverse events, Grade 3: Swelling: 1 (7%)
[1]; [5]
  dose-limiting diarrhea or neutropenia: no evidence of dose-limiting diarrhea or neutropenia
  unexplained toxicity: no unexplained toxicity
[2]
  anti-cancer activity in the 22Rv1 xenograft model (tumor growth): modest activity
[3]
  tumor growth in PC-3 mouse xenograft model: inhibited tumor growth
[4]; Cohort 2, 1 mg BID oral, any sample
  detection of compound of structure (I) in plasma: no compound of structure (I) was detected
[4]; across cohorts (FIGS. 24G, 24H), oral Formulation No. 401-01
  detectable compound of structure (I) in plasma: no detectable compound of structure (I)
